For orientation: IC50 means the concentration that inhibits the measured activity by half.

The record followed here is ChEMBL document CHEMBL3352350, “Syntheses and structure-activity relationships in cytotoxicities of 13-substituted quaternary coptisine derivatives” (Eur J Med Chem, 2014).

SMILES strings stand for the structures.

Assay [1] concerns A549. The experiment in a line: Ratio of 5-fluorouracil IC50 to compound IC50 for human A549 cells assessed as growth inhibition rate after 96 hrs by MTT assay. Format: functional. In general terms: Formazan colour is commonly taken as a measure of viable cells.
A short description of assay [2]: Cytotoxicity against human HCT8 cells assessed as growth inhibition rate at 0.1 to 100 umol/L after 96 hrs by MTT assay. Format: functional, HCT-8.
A short description of assay [3]: Cytotoxicity against human C33A cells assessed as growth inhibition rate at 0.1 to 100 umol/L after 96 hrs by MTT assay. It counts as functional, C-33-A.
Assay [4] has as its system HCT-8. The experiment in a line: Ratio of 5-fluorouracil IC50 to compound IC50 for human HCT8 cells assessed as growth inhibition rate after 96 hrs by MTT assay. It counts as functional.
A short description of assay [5]: Cytotoxicity against human Bel7402 cells assessed as growth inhibition rate at 0.1 to 100 umol/L after 96 hrs by MTT assay. It counts as functional, Bel-7402.
Assay [6] has as its system A549. Nature of the assay: Cytotoxicity against human A549 cells assessed as growth inhibition rate at 0.1 to 100 umol/L after 96 hrs by MTT assay. It counts as functional.
Assay [7] relates to C-33-A. The experiment in a line: Ratio of 5-fluorouracil IC50 to compound IC50 for human C33A cells assessed as growth inhibition rate after 96 hrs by MTT assay. Format: functional.
Assay [8] deals with Bel-7402. The experiment in a line: Ratio of 5-fluorouracil IC50 to compound IC50 for human Bel7402 cells assessed as growth inhibition rate after 96 hrs by MTT assay. It counts as functional.
The nature of assay [9]: Cytotoxicity against human Bel7402 cells assessed as growth inhibition rate after 96 hrs by MTT assay. It counts as functional, cell-based. The following applies: Bel-7402, 96 h.
Assay [10] is described as follows: Cytotoxicity against human C33A cells assessed as growth inhibition rate after 96 hrs by MTT assay. Format: functional, cell-based. Conditions: C-33-A.
Assay [11] is described as follows: Cytotoxicity against human HCT8 cells assessed as growth inhibition rate after 96 hrs by MTT assay. Format: functional, cell-based. The following applies: HCT-8, 96 h.
For assay [12], the system named is A549. Nature of the assay: Cytotoxicity against human A549 cells assessed as growth inhibition rate after 96 hrs by MTT assay. It counts as functional, cell-based. Conditions: A549, 96 h.
The nature of assay [13]: Cytotoxicity against human BGC823 cells assessed as growth inhibition rate after 96 hrs by MTT assay. It counts as functional, cell-based. Conditions: BGC-823, 96 h.

For `CCCCCCCCCCCc1c2[n+](cc3c4c(ccc13)OCO4)CCc1cc3c(cc1-2)OCO3.[Cl-]`, the “Ratio IC50” value in [1] came to 11; in assay [4], 4; in [7], 3; in assay [8], 2. Further, the “growth inhibition (GI)” value in [2] is reported as 92.7%; in assay [3], 86.84%; in assay [5], 91.22%; in assay [6] it was 94.28%. The IC50 in assay [9] was 1.22 µM; in assay [10], 1.57 µM; in [11] it was 0.82 µM; in assay [12], 0.61 µM.
With `Fc1cccc(Cc2c3[n+](cc4c5c(ccc24)OCO5)CCc2cc4c(cc2-3)OCO4)c1.[Cl-]`, the entries for the “growth inhibition (GI)” value in assay [2], in [5] and in [6] were 4.59%, 4.06% and 6.81%, respectively. Besides, the concentration for half-maximal inhibition (IC50) in [13], in assay [9], in assay [11] and in [12] was more than 10 µM in each case.
As for `Fc1ccccc1Cc1c2[n+](cc3c4c(ccc13)OCO4)CCc1cc3c(cc1-2)OCO3.[Cl-]`, the “growth inhibition (GI)” value in [2] stood at 26.26%; in assay [5], 6.94%; in assay [6], 18.8%. Moreover, the IC50 in assay [13], in assay [9], in assay [11] and in [12] was more than 10 µM throughout.
Take `Fc1ccc(Cc2c3[n+](cc4c5c(ccc24)OCO5)CCc2cc4c(cc2-3)OCO4)c(F)c1.[Cl-]`: the “growth inhibition (GI)” value was 1.19% in assay [2], 5.45% in assay [5] and 5.86% in assay [6]. For the same compound, the IC50 in [13], in assay [9], in assay [11] and in assay [12] was more than 10 µM each time.
For the compound `FC(F)(F)c1cccc(Cc2c3[n+](cc4c5c(ccc24)OCO5)CCc2cc4c(cc2-3)OCO4)c1.[Cl-]`, the “growth inhibition (GI)” value is given as -1.37% in assay [2], 5.98% in assay [5] and 7.78% in assay [6]. The IC50 in assay [13], in assay [9], in assay [11] and in assay [12] was more than 10 µM in each case.
With `FC(F)(F)c1cc(Cc2c3[n+](cc4c5c(ccc24)OCO5)CCc2cc4c(cc2-3)OCO4)cc(C(F)(F)F)c1.[Cl-]`, the “growth inhibition (GI)” value in assay [2] is -5.72%; in assay [5] it was 3.61%; in assay [6] it was 3.45%. Further, the IC50 in [13], in assay [9], in assay [11] and in assay [12] was more than 10 µM throughout.
